# In patent publication US20140182011A1, “Methods Using Acyl-Coenzyme A-Binding Proteins to Enchance Drought Tolerance in Genetically Modified Plants” (The University of Hong Kong, priority 2011, published 2014):
# Tests used:
# [1] = tested on: Arabidopsis seeds; assay: Seed germination with ABA treatment; type: in vivo
# Description: To test ABA sensitivity at germination, over 200 seeds per experiment were sown on MS medium in the presence or absence of […] (Sigma-Aldrich, St Louis, Mo., USA). After 2 d at 4° C., seeds were germinated and grown under 16-hour-light (23° C.)/8-hour-dark (21° C.) cycles. Germination was examined daily with a microscope (Leica MZ6; Leica, Solms, Germany), and seedlings were photographed after 7 d. For post-germination growth assays, seeds were germinated on MS medium for 4 d, followed by transfer to MS medium or MS medium supplemented with […] for 7 d before photography and root measurements.
# [2] = tested on: ACBP2pro:GUS; assay: Histochemical GUS assay during germination; type: in vivo, Arabidopsis; details: ABA treatment
# Description: Histochemical GUS assays were carried out using 5 bromo-4-chloro-3-indolyl-b-D-glucuronide (X-Glue) according to Liu et al., Plant Cell, 16: 5-20 (2004). Plant samples were immersed and vacuum filtrated in the GUS staining solution for 30 min (100 mM sodium phosphate buffer, pH 7.0, 0.1% Triton X-100, 2 mM potassium ferricyanide, 2 mM potassium ferrocyanide, 1 mg/mL 5 bromo-4-chloro-3-indolyl-β-D-glucuronide), incubated and observed over a period ranging from 3 to 16 h at 37° C. Subsequently, samples were cleared in 70% ethanol and photographed.
# [3] = tested on: ACBP2; assay: qRT-PCR of ACBP2 expression after ABA treatment; type: in vivo, Arabidopsis; details: 12-day-old seedlings, ABA (100 µM), continuous white light
# Description: TRIzol® reagent was also used for RNA extraction of 12-day-old Arabidopsis seedlings subject to treatment by 100 μM ABA or drought for the various times (0, 1, 3, 6 and 24 h) under continuous white light. First-strand was synthesized using the Superscript First-Strand Synthesis System (Invitrogen). QRT-PCR was performed using StepOne Plus (Applied Biosystems) and FastStart Universal SYBR Green Master (Roche). Transcript changes were analyzed according to Schmittgen and Livak (Nat. Protoc. 3:1101-1108 (2008) from three independent experiments.
# To determine the effect of ABA treatment on ACBP2 expression, the expression of ACBP2 was examined by Real-time quantitative PCR (qRT-PCR) using primers ML1122 and ML1123 (SEQ ID NOs: 1 and 2) in 12-day-old seedlings before and after ABA treatment under continuous white light. qRT-PCR was performed using StepOne Plus (Applied Biosystems) and FastStart Universal SYBR Green Master (Roche). Transcript changes were analyzed according to Schmittgen and Livak (Nat. Protoc. 3: 1101-1108 (2008) from three independent experiments.
smiles,measurement,setting,value
"CC1=CC(=O)CC(C)(C)[C@@]1(O)/C=C/C(C)=C\C(=O)O [ABA, Abscisic acid]",seed germination,[1],suppressed germination
same,GUS expression as germination progressed,[2],retained GUS expression
same,ACBP2 expression (qRT-PCR),[3],significant induction
